# Paper PMC8765781, “A platform of assays for the discovery of anti-Zika small-molecules with activity in a 3D-bioprinted outer-blood-retina model” (PLoS ONE, 2022)
# Where two headings read alike, the source gives them in different places.
# What was measured:
# [1] = system: mCherry-ZIKV in human neuronal progenitor cells; assay: microbe, parasite or virus in culture; type: cell-based, Zika virus; conditions: for AC50 / IC50: Zika virus, Neuronal progenitor cell; for IC50: read-out: NPC (ZIKV Antiviral Assays), IC50
# [2] = system: ZIKV
# [3] = system: ZIKV-mCherry in 3D-oBRB tissue; type: cell-based, Zika virus
# [4] = system: ZIKV-mCherry (Cambodian strain FSS13025); assay: microbe, parasite or virus in culture; type: cell-based, Zika virus; conditions: for AC50: Zika virus, Vero
# [5] = system: ZIKV-RLuc (Cambodian strain FSS13025); assay: microbe, parasite or virus in culture; type: cell-based, Zika virus; conditions: Zika virus, Vero, 48 h, read-out: Rluc-ZIKV (ZIKV Antiviral Assays), IC50
# [6] = system: wild-type ZIKV (Ugandan MR766 strain) in Vero cells; assay: ZIKV cytopathic effect (CPE) inhibition qHTS assay, CellTiter-Glo readout; type: cell-based, Zika virus; conditions: for AC50 / IC50: Zika virus; for IC50: read-out: ZIKV-infection (CPE, ZIKV Antiviral Assays), IC50
# [7] = system: WNV (Kern515/WN02)
# [8] = system: YFV (YFV 17D)
# [9] = system: caspase-3 activity induced by ZIKV in Vero cells; assay: cells; type: cell-based; conditions: Zika virus, read-out: Caspase 3 (ZIKV Antiviral Assays), IC50
# [10] = system: DENV (Dengue virus type 2, strain New Guinea C)
# [11] = in vitro; conditions: African green monkey
# [12] = in vitro; conditions: human
# [13] = in vitro; conditions: human; remark: listed apart in the source
# [14] = read-out: Log AC50 (M) (converted)
# [15] = Vero, read-out: Log AC50 (M) (converted)
SMILES,CC-v2 (curve class) [1],Efficacy [1],Max Resp [1],AC50 [1],IC50 [1],ZIKV active Yes/No [2],CC-v2 (curve class of the dose response curve) [4],Efficacy (difference between neutral response and maximum compound response) [4],Max Resp (difference between neutral response and response at highest compound concentration) [4],IC50 [5],Efficacy [6],AC50 ([6]; Vero),"IC50 ([6]; Vero, 48 h)","AC50 [6, 15]",WHV active Yes/No [7],YFV active Yes/No [8],"IC50 ([9]; Vero, 48 h)",DENV active Yes/No [10],CC50 [12],CC50 at 24 h [13],also measured
"C=C(C)[C@@]12O[C@@H]1[C@@]1(C)C(=CC2=O)CC[C@@H](OC(C)=O)[C@@H]1C [NCGC00380955-01, 3-Acetyl-13-deoxyphomenone]",-1.2,-81.826,-89.257,1.26e-05 M,12.6 µM,Yes,-1.2,-59.673,-100.008,2.33 µM,-61.612,4.61e-06 M,4.61 µM,4.61e-06 M,Yes,Yes,1.66 µM,Yes,,,"Antiviral activity in human NPC [1]: effectively inhibited ZIKV in NPC cells; AC50 [1, 14]: 1.26e-05 M; Activity against ZIKV [2]: pan-activity against all four screened flaviviruses; SI value ZIKV (CC50/EC50) [2]: 22; Selectivity Index ZIKV (CC50/EC50) [2]: 22; Retention of barrier function (TEER) [3]: 30%; AC50 [4]: 1.5e-06 M; AC50 [4, 14]: 1.5e-06 M; CC-v2 (curve class classification of the dose response curve) [6]: -1.2; Activity against WNV [7]: pan-activity against all four screened flaviviruses; SI value WHV (CC50/EC50) [7]: 9; Selectivity Index WHV (CC50/EC50) [7]: 9; Activity against YFV [8]: pan-activity against all four screened flaviviruses; SI value YFV (CC50/EC50) [8]: 5; Selectivity Index YFV (CC50/EC50) [8]: 5; Activity against DENV [10]: pan-activity against all four screened flaviviruses; SI value DENV (CC50/EC50) [10]: 14; Selectivity Index DENV (CC50/EC50) [10]: 14; CC50 [11]: > 50 µM"
Cc1[nH]c2ccccc2c1C1=C(NCCc2ccc(F)cc2)C(=O)N(C)C1=O [NCGC00386352-05],-2.2,-103.895,-78.246,3.98e-05 M,39.8 µM,Yes,-1.4,-71.769,-66.876,7.37 µM,-35.912,2.06e-05 M,20.6 µM,2.06e-05 M,No,No,33.1 µM,Yes,> 30 µM,17.8 µM,"Antiviral activity in human NPC [1]: effectively inhibited ZIKV in NPC cells; AC50 [1, 14]: 3.98e-05 M; Activity against ZIKV [2]: active against both DENV and ZIKV; SI value ZIKV (CC50/EC50) [2]: 23; Selectivity Index ZIKV (CC50/EC50) [2]: 23; CC-v2 (curve class classification of the dose response curve) [6]: -1.2; Activity against DENV [10]: active against both DENV and ZIKV; SI value DENV (CC50/EC50) [10]: 24; Selectivity Index DENV (CC50/EC50) [10]: 24; CC50 at 48 h ([11]; Vero cells): > 50 µM"
CNC(=O)c1cc(Oc2ccc(NC(=O)Nc3cc(C(C)(C)C)nn3-c3ccc4ncccc4c3)c(F)c2)ccn1 [NCGC00263172-09],,-38.32,-37.38,4.47e-05 M,44.7 µM,No,-1.2,-48.4,-100.305,8.27 µM,-30.756,2.91e-05 M,29.1 µM,2.91e-05 M,No,No,0.01 µM,No,> 30 µM,12.1 µM,"AC50 [1, 14]: 4.47e-05 M; AC50 [4]: 9.46e-07 M; AC50 [4, 14]: 9.46e-07 M; CC-v2 (curve class classification of the dose response curve) [6]: -1.2; CC50 at 48 h ([11]; Vero cells): > 50 µM"
CCOC(=O)C1=C(C)NC2=C(C(=O)CC(C)(C)C2)C1c1ccc(-c2ccccc2)cc1 (stereo not shown) [NCGC00347947-06],-2.1,-93.817,-85.476,3.55e-05 M,35.5 µM,No,5,-39.533,-99.952,14.7 µM,-55.111,2.06e-05 M,20.6 µM,2.06e-05 M,No,No,33.1 µM,No,22.4 µM,> 30 µM,"Antiviral activity in human NPC [1]: moderate antiviral activity; AC50 [1, 14]: 3.55e-05 M; AC50 [4]: 8.43e-07 M; AC50 [4, 14]: 8.43e-07 M; CC-v2 (curve class classification of the dose response curve) [6]: -2.2; CC50 at 48 h [11]: > 50 µM"
COC(=O)[C@]12CCCC(C)(C)C1CCc1cc(C(C)C)c(O)c(O)c12 (stereo partly shown) [NCGC00380281-01],4,-22.278,-14.815,,31.6 µM,No,-1.4,-82.117,-100.29,25.6 µM,,,,,No,No,,No,> 30 µM,> 30 µM,"AC50 ([6]; Vero, from Hill fit of the response curve, 50% of maximum activity response, 194 cherry-picked compounds, protocol name not given, read-out: AC50): 7.18e-06 M; AC50 ([6]; Vero, potency in log units (Molar) from Hill fit of the response curve, 194 cherry-picked compounds, protocol name not given, read-out: Log AC50 (converted)): 7.18e-06 M; IC50 ([6]; Vero cells, wild-type ZIKV MOI 1, 48 hr, unit inferred): 7.18 µM; Efficacy ([6]; difference between neutral response and maximum compound response): -21.701; IC50 ([9]; ZIKV-infected Vero cells, 48 hr, unit inferred): 12.9 µM; CC50 at 48 h [11]: > 50 µM"
C=C1CCC2[C@](C)(CCC[C@]2(C)C(=O)O)[C@H]1CC/C(C)=C/C(=O)OC (stereo partly shown) [NCGC00168922-02],4,-21.467,-17.835,,11.2 µM,No,-1.4,-50.999,-55.843,0.07 µM,-63.179,4.04e-07 M,0.4 µM,4.04e-07 M,No,No,7.24 µM,No,> 30 µM,13.3 µM,CC50 at 48 h ([11]; Vero cells): > 50 µM
